Measurements as given in patent US20090023738A1, “DIAMINOPYRIMIDINES AS MODULATORS OF THE EP2 RECEPTOR” (priority 2007, published 2009).
pIC50: −log10 of the molar value.

Experiments:
[1] = biological target: T1, EP2 subtype of the human PGE2 receptor (Homo sapiens, UniProt P43116); test: cellular cAMP agonism assay; assay type: cell-based; settings: without PGE2
T1 construct: host or cells: cells in a cell culture plate
Procedure: (§1) The binding of PGE2 to the EP2 subtype of the human PGE2 receptor induces activation of membrane-associated adenylate cyclases and leads to the formation of cAMP. In the presence of the phosphodiesterase inhibitor IBMX, cAMP which has accumulated due to this stimulation and been released by cell lysis is employed in a competitive detection method. In this assay, the cAMP in the lysate competes with cAMP-XL665 for binding of an Eu cryptate-labelled anti-cAMP antibody.
(§2) The two signals are measured in a suitable measuring instrument with a time lag, i.e. after the background fluorescence has declined.
1.2.2 Agonism Assay (Data for Each Well of a 384-Well Plate): […]
After incubation at room temperature (RT; volume: 15 μl) for 60 minutes, the reaction is then stopped by adding 5 μl of lysis buffer and incubated at RT for a further 20 min (volume: 20 μl). The cell lysate is then transferred into a measuring plate and measured in accordance with the manufacturer's information (cyclic AMP kit Cisbio International # 62AMPPEC).

[2] = biological target: T1, EP2 subtype of the human PGE2 receptor; test: cAMP antagonism assay (EP2 receptor signal, HTRF cAMP detection); assay type: cell-based; settings: in the presence of the agonist PGE2
From the text: 1. Detection of the Antagonism of the Human Prostaglandin E2 (Subtype EP2 Receptor Signal
as §1, §2
1.2.1 Antagonism Assay (Data for Each Well of a 384-Well plate): […]
After preincubation at room temperature (RT) for 30 minutes, 5 μl of a 4×PGE2 solution (11 nM) are added, and incubation is carried out in the presence of the agonist at RT for a further 60 min (volume: 20 μl) before the reaction is then stopped by adding 5 μl of lysis buffer and incubated at RT for a further 20 min (volume: ˜25 μl). The cell lysate is then transferred into a measuring plate and measured in accordance with the manufacturer's information (cyclic AMP kit Cisbio International # 62AMPPEC).

T1 sequence (P43116 whole entry): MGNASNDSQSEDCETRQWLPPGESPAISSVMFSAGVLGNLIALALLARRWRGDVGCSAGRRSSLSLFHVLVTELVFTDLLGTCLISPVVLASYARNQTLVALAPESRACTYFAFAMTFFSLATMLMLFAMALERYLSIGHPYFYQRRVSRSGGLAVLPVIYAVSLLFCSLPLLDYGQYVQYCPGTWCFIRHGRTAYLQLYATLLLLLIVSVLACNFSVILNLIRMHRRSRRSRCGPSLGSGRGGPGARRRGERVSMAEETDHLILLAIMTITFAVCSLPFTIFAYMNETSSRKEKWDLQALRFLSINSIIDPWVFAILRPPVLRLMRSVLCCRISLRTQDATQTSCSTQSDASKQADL

effect in the cellular agonism test [1]	pIC50 [2]	SMILES
no inhibition	5.80	Cc1[nH]c2c(F)ccc(C)c2c1CCNc1cc(NCc2cccnc2)ncn1 [Example 6, N-[2-(7-Fluoro-2,4-dimethyl-1H-indol-3-yl)ethyl]-N′-pyridin-3-ylmethylpyrimidine-4,6-diamine]
–	5.85	Cc1[nH]c2c(F)ccc(C)c2c1CCNc1cc(NCc2ccccc2-c2ccccc2)ncn1 [Example 17, N-Biphenyl-2-ylmethyl-N′-[2-(7-fluoro-2,4-dimethyl-1H-indol-3-yl)ethyl]-pyrimidine-4,6-diamine]
